Measured values as given in patent publication US20120196899A1, “METHODS AND PRODUCTS FOR TREATING INFLAMMATION” (Rock Creek Pharmaceuticals, Inc., priority 2010, published 2012).

Tests used:
nAChR α7 [1] = biological target: T1, nAChR α7 (Homo sapiens, UniProt P36544); experiment: cell-based; conditions: with 300 μM Ach + 10 μM PNU-120596, 10 μM MLA = full inhibition, read-out: Normalized % Inhibition
T1 construct: host or cells: CHO cells

nAChR α4/β2 = biological target: T2, nAChR α4/β2 (Homo sapiens, UniProt P17787+P43681); experiment: nAChR α4/β2 positive allosteric modulator assay (FLIPR); type: cell-based; conditions: with 10 μM Ach (= 0%), 10 μM Ach + epibatidine = 100%
T2 construct: host or cells: HEK293 cells, transient transfection
T2 sequence (P17787 26-502): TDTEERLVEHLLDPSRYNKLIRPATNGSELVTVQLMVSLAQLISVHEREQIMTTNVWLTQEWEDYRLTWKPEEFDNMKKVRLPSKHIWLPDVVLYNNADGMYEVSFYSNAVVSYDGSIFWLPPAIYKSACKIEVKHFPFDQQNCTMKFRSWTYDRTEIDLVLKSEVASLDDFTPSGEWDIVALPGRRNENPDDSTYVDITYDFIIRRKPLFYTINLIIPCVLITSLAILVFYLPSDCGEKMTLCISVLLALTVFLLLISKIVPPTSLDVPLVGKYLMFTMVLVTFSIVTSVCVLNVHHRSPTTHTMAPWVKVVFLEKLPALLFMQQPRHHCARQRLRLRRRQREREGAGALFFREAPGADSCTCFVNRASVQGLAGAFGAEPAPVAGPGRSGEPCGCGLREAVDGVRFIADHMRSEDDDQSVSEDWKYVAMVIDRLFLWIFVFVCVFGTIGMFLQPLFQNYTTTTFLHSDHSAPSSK
T2 sequence (P43681 29-627): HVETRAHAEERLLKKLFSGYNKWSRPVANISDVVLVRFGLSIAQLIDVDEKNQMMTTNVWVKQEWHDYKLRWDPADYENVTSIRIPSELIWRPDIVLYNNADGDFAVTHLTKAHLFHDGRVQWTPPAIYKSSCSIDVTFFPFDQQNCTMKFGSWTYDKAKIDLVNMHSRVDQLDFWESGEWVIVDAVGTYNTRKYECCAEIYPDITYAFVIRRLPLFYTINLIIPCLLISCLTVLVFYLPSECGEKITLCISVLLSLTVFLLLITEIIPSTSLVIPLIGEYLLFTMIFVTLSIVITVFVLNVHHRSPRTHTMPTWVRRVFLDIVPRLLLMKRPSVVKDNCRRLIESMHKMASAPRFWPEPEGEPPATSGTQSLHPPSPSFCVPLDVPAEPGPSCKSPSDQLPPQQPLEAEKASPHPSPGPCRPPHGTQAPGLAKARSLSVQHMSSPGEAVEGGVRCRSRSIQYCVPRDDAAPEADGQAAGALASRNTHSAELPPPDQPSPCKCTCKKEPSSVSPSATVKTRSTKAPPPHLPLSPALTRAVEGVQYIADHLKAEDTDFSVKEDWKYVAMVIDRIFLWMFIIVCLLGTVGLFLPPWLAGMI
Method: (§2) The following three (3) channels were evaluated: • 1. nAChR α3/β4 (encoded by the human CHRNA3 and CHRNB4 gene and stably expressed in CHO cells); • 2. nAChR α4/β2 (CHRNA4 and CHRNB2 gene and transiently expressed in HEK293 cells); and • 3. nAChR α7 (encoded by the human nicotinic α7 gene coexpressed in CHO cells with the chaperone RIC-3 encoded by the human RIC3 gene).
(§3) The ability of each test article to act as an agonist, a positive allosteric modulator or antagonist of three nAChR receptor channels was evaluated in the presence of 0.1 atropine. Both test articles were evaluated for responses on each nAChR channel at eight (8) concentrations: 0.3, 1, 3, 10, 30, 100, 300, and 1000 μM (n=4 for each concentration).
(§4) HEK293 or CHO cells were transiently or stably transfected with the appropriate human ion channel cDNAs. Stable transfectants were selected by coexpression with the antibiotic-resistance gene(s) incorporated into the expression plasmid(s). Selection pressure was maintained by including selection antibiotics in the culture medium. HEK293 cells were cultured in Dulbecco's Modified Eagle Medium/Nutrient Mixture F-12 (D-MEM/F-12) supplemented with 10% fetal bovine serum, 100 U/mL penicillin G sodium, 100 g/mL streptomycin sulfate and appropriate selection antibiotics. CHO cells were cultured in Ham's F-12 supplemented with 10% fetal bovine serum, 100 U/mL penicillin G sodium, 100 g/mL streptomycin sulfate and appropriate selection antibiotics.
(§5) For FLIPR TETRA™ assay, cells were plated in 384-well black wall, flat clear bottom microtiter plates (Type: BD Biocoat Poly-D-Lysine Multiwell Cell Culture Plate) at 20,000 to 30,000 cells per well (384-well plate). Cells were incubated at 37° C. overnight or until the cells reached a sufficient density in the wells (near confluent monolayer) to use in fluorescence assays. For α4β2 assay, cells were incubated at 27° C. for at least 7 hours before use.
(§6) Experiments were performed with either the FLIPR calcium sensitive dye kit (Fluo-8, ABDbioquest, for nAChR α3/β4 and nAChR α7) or FLIPR membrane potential kit (Molecular Devices, for nAChR α4/β2) according to the manufacturer's instructions. Briefly, cells were incubated with 201 dye for 30 min at 37° C. After dye loading period, for the agonist assay, 5 μl of the test, vehicle, or control articles at concentration of 5 times of final concentration were applied to the cells without stimulation. For the positive allosteric modulation (PAM) and antagonist assay, after test article application, the cells were stimulated with either low dose (for PAM) or high dose (for antagonist) of Ach.
The signal elicited in the presence of the positive control agonist and allosteric modulator epibatidine (10 μM Ach+3 μM epibatidine) was set to 100% and the signal from the agonist control (10 μM Ach) was set to 0%.

nAChR α7 [2] = biological target: T1, nAChR α7; experiment: nAChR α7 positive allosteric modulator assay (FLIPR); type: cell-based; conditions: with 30 μM Ach (= 0%), 30 μM Ach + 10 μM PNU-120596 = 100%
Method: as §2, §3, §4, §5, §6
The ability of each test article to act as a positive allosteric modulator of nicotinic α7 was carried out in the presence of the positive control agonist (30 μM Ach) alone. The signal elicited in the presence of the positive control agonist and allosteric modulator PNU-120596 (30 μM Ach+10 μM PNU-120596) was set to 100% and the signal from the agonist control (30 μM Ach) was set to 0%. Values were considered significant and in bold font if the test article mean was three or more standard deviations above the agonist control mean.

[3] = tested on: Experimental Autoimmune Thyroiditis; experiment: Experimental Autoimmune Thyroiditis (Example 16A): serum antibodies to PPD and thyroglobulin; type: in vivo, mice
Method: (§1) Thyroiditis was induced by injection of thyroglobulin emulsified in complete Freund's adjuvant (CFA). On days 0 and 7, female mice received subcutaneous injection of 100 μg thyroglobulin (2 injections of 50 μg each). Control mice drank water. […] Mice were sacrificed on day 21.
Immunochemistry. Serum from control and anatabine-treated mice was examined to determine levels of antibodies to a foreign antigen (PPD).
Levels of antibodies to thyroglobulin were examined on days 7, 14, and 21 after immunization.

BACE-1 mRNA = BACE-1 mRNA levels in SHSY cells by RTPCR; type: cell-based, human; conditions: 30 minutes, TNF-α induced
Source text: TNF-α was used to increase BACE expression.

7W CHO cells = experiment: Toxicity in 7W CHO cells; type: cell-based
[4] = Case: treatment of patient with autism and seizure disorder; type: in vivo, human patient; conditions: 1.0 mg three times per day
Source text: A patient, who was diagnosed with autism and a seizure disorder, had brain surgery and began rehabilitation the following month.

[5] = tested on: Experimental Autoimmune Thyroiditis; experiment: Experimental Autoimmune Thyroiditis (Example 16A): thyroid histopathology; type: in vivo, mice; conditions: 0.05 mg/ml in drinking water, day 21, p=0.05
Method: as §1
Thyroid histopathology. Thyroid glands were removed. One lobe was fixed in formalin for histopathology. One lobe was frozen for immunohistochemistry. The extent of lymphocytic infiltration and destruction of the thyroid gland was assessed digitally. Initially, the entire thyroid lobe was examined. […] The final score was expressed as the percent of the thyroid area infiltrated by lymphocytes and damaged. The results are shown graphically in FIG. 42. […] Photomicrographs of hematoxylin- and eosin-stained thyroids from control and anatabine-treated mice are shown in FIG. 43A (control) and FIG. 43B (anatabine-treated).

[6] = Physical signs after oral multi-dose administration; type: in vivo, Sprague-Dawley rats; conditions: 0.6 or 6.0 mg/kg BW p.o. in three divided doses
Source text: The physical signs of each animal were monitored following administration of the test compound.

[7] = tested on: BACE-1 protein expression; experiment: BACE-1 protein expression in SHSY cells (Western blot); type: cell-based, human; conditions: 24 hours, corrected for actin
Aβ production = Aβ production in 7W CHO cells; type: cell-based

T1 sequence (P36544 23-502): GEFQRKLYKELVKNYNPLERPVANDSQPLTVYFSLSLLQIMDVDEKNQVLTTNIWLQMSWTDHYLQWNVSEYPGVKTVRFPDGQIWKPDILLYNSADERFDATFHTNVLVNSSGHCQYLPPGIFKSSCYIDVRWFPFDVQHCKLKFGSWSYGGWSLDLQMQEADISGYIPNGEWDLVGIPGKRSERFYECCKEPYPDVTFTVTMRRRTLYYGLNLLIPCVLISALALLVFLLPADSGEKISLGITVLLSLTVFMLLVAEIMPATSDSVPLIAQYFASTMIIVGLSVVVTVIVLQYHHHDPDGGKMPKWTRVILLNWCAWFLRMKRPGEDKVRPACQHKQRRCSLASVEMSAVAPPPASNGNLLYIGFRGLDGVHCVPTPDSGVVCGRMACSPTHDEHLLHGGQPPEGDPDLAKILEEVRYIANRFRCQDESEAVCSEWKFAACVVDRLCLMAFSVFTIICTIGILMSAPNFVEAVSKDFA

Q: Which inhibition at 0.3 µM (nAChR α7 [1]; test conc 0.3 μM) does the source give for C1=CCC(c2cccnc2)NC1 (racemic) [Anatabine (racemate)] here?
A: Its inhibition at 0.3 µM is 22.4%.

Q: What about the inhibition at 1 µM (nAChR α7 [1]; test conc 1 μM) of the same compound?
A: Its inhibition at 1 µM is 22.2%.

Q: What about the inhibition at 3 µM (nAChR α7 [1]; test conc 3 μM) of the same compound?
A: The inhibition at 3 µM was 45.2%.

Q: What about the inhibition at 10 µM (nAChR α7 [1]; test conc 10 μM) of the same compound?
A: The inhibition at 10 µM was 33.4%.

Q: What about the inhibition at 30 µM (nAChR α7 [1]; test conc 30 μM) of the same compound?
A: The inhibition at 30 µM was 22.9%.

Q: What about the inhibition at 100 µM (nAChR α7 [1]; test conc 100 μM) of the same compound?
A: The inhibition at 100 µM was 22%.

Q: What about the inhibition at 300 µM (nAChR α7 [1]; test conc 300 μM) of the same compound?
A: The inhibition at 300 µM was 7.51%.

Q: And the inhibition at 1000 µM (nAChR α7 [1]; test conc 1000 μM)?
A: The inhibition at 1000 µM was 10.8%.

Q: What about the “Normalized % Potentiation” value (nAChR α4/β2; test conc 0.3 μM) of the same compound?
A: The value was −18.94%.

Q: What about the “Normalized % Potentiation” value (nAChR α4/β2; test conc 1 μM) of the same compound?
A: The value was −27.03%.

Q: What about the “Normalized % Potentiation” value (nAChR α4/β2; test conc 3 μM) of the same compound?
A: The value was −35.59%.

Q: What about the “Normalized % Potentiation” value (nAChR α4/β2; test conc 10 μM) of the same compound?
A: The value was −42.34%.

Q: What about the “Normalized % Potentiation” value (nAChR α4/β2; test conc 30 μM) of the same compound?
A: Its value is −39.48%.

Q: And the “Normalized % Potentiation” value (nAChR α4/β2; test conc 100 μM)?
A: The value was −38.34%.

Q: And the “Normalized % Potentiation” value (nAChR α4/β2; test conc 300 μM)?
A: The value was −41.07%.

Q: What about the “Normalized % Potentiation” value (nAChR α4/β2; test conc 1000 μM) of the same compound?
A: The value was −35.30%.

Q: And the “Normalized % Potentiation” value (nAChR α7 [2]; test conc 0.3 μM)?
A: The value was −0.94%.

Q: What about the “Normalized % Potentiation” value (nAChR α7 [2]; test conc 1 μM) of the same compound?
A: The value was −1.05%.

Q: And the “Normalized % Potentiation” value (nAChR α7 [2]; test conc 3 μM)?
A: Its value is −0.82%.

Q: And the “Normalized % Potentiation” value (nAChR α7 [2]; test conc 10 μM)?
A: The value was −0.51%.

Q: What about the “Normalized % Potentiation” value (nAChR α7 [2]; test conc 30 μM) of the same compound?
A: Its value is −0.57%.

Q: And the “Normalized % Potentiation” value (nAChR α7 [2]; test conc 100 μM)?
A: The value was −0.64%.

Q: And the “Normalized % Potentiation” value (nAChR α7 [2]; test conc 300 μM)?
A: The value was −0.74%.

Q: What about the “Normalized % Potentiation” value (nAChR α7 [2]; test conc 1000 μM) of the same compound?
A: Its value is −1.05%.

Q: With C1=CCC(c2cccnc2)NC1 (racemic) [Anatabine, 1,2,3,6-tetrahydro-[2,3′]bipyridinyl] as the compound, how does the “levels of antibodies to PPD” value ([3]; 0.05 mg/ml in drinking water, versus control) read?
A: The value was “no significant difference”.

Q: What about the “levels of antibodies to thyroglobulin” value ([3]; day 7) of the same compound?
A: Its value is “no significant difference”.

Q: What about the “levels of antibodies to thyroglobulin” value ([3]; day 14, p=0.086) of the same compound?
A: Its value is “tended to have lower thyroglobulin antibodies”.

Q: And the “levels of antibodies to thyroglobulin” value ([3]; day 21)?
A: The value was “no significant difference”.

Q: What about the “BACE-1 mRNA expression” value (BACE-1 mRNA) of the same compound?
A: Its value is “reduced this signal in a concentration-dependent manner”.

Q: What about the toxicity (7W CHO cells) of the same compound?
A: Its toxicity is “No toxicity was observed”.

Q: What about the cognitive benefits ([4]; from approximately one week) of the same compound?
A: Its cognitive benefits is “improved communication and language skills and the ability to focus”.

Q: And the frequency of seizures ([4]; over 3½ weeks, one patient)?
A: The frequency of seizures was “decreased from one per day to approximately one per week”.

Q: And the “thyroid pathology (percent of thyroid area infiltrated and damaged)” value [5]?
A: Its value is “developed less severe thyroiditis than control mice”.

Q: What about the adverse signs [6] of the same compound?
A: Its adverse signs is “no adverse signs were observed”.

Q: And the BACE-1 protein expression [7]?
A: Its BACE-1 protein expression is “reduced BACE expression”.

Q: And the “Aβ production (Aβ1-42, Aβ1-40)” value (Aβ production)?
A: The value was “concentration-dependent reduction of Aβ production”.
